Test results taken from PubChem BioAssay (NCI).
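Test compounds were applied to cells in 96-well plates for 48 hours at 5 doses. GI50 marks 50% less growth. TGI denotes the concentration required for complete inhibition of growth.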

How the values were obtained:
Assay in all cases: NCI-60 cell line screen, 48 h
786-0 renal = test system: 786-0 renal
A498 renal = test system: A498 renal
A549 NSCLC = test system: A549 NSCLC
ACHN renal = test system: ACHN renal
BT-549 breast = test system: BT-549 breast
CAKI-1 renal = test system: CAKI-1 renal
CCRF-CEM leukemia = test system: CCRF-CEM leukemia
COLO 205 colon = test system: COLO 205 colon
DU-145 prostate = test system: DU-145 prostate
HCC-2998 colon = test system: HCC-2998 colon
HCT-116 colon = test system: HCT-116 colon
HCT-15 colon = test system: HCT-15 colon
HL-60(TB) leukemia = test system: HL-60(TB) leukemia
HOP-62 NSCLC = test system: HOP-62 NSCLC
HOP-92 NSCLC = test system: HOP-92 NSCLC
HS 578T breast = test system: HS 578T breast
HT29 colon = test system: HT29 colon
IGROV1 ovarian = test system: IGROV1 ovarian
K-562 leukemia = test system: K-562 leukemia
KM12 colon = test system: KM12 colon
LOX IMVI melanoma = test system: LOX IMVI melanoma
M14 melanoma = test system: M14 melanoma
MCF7 breast = test system: MCF7 breast
MDA-MB-231 breast = test system: MDA-MB-231 breast
MDA-MB-435 = test system: MDA-MB-435
MOLT-4 leukemia = test system: MOLT-4 leukemia
NCI-H226 lung = test system: NCI-H226 lung
NCI-H23 lung = test system: NCI-H23 lung
NCI-H460 lung = test system: NCI-H460 lung
NCI-H522 lung = test system: NCI-H522 lung
NCI/ADR-RES ovarian = test system: NCI/ADR-RES ovarian
OVCAR-3 ovarian = test system: OVCAR-3 ovarian
OVCAR-4 ovarian = test system: OVCAR-4 ovarian
OVCAR-5 ovarian = test system: OVCAR-5 ovarian
OVCAR-8 ovarian = test system: OVCAR-8 ovarian
PC-3 prostate = test system: PC-3 prostate
RPMI-8226 leukemia = test system: RPMI-8226 leukemia
RXF 393 renal = test system: RXF 393 renal
SF-268 CNS = test system: SF-268 CNS
SF-295 CNS = test system: SF-295 CNS
SF-539 CNS = test system: SF-539 CNS
SK-MEL-2 melanoma = test system: SK-MEL-2 melanoma
SK-MEL-28 melanoma = test system: SK-MEL-28 melanoma
SK-MEL-5 melanoma = test system: SK-MEL-5 melanoma
SK-OV-3 ovarian = test system: SK-OV-3 ovarian
SN12C renal = test system: SN12C renal
SNB-19 CNS = test system: SNB-19 CNS
SNB-75 CNS = test system: SNB-75 CNS
SR leukemia = test system: SR leukemia
SW-620 colon = test system: SW-620 colon
TK-10 renal = test system: TK-10 renal
U251 CNS = test system: U251 CNS
UACC-257 melanoma = test system: UACC-257 melanoma
UACC-62 melanoma = test system: UACC-62 melanoma
UO-31 renal = test system: UO-31 renal

COc1ccc(/C=C\c2cc(OC)c(OC)c(OC)c2)c(NS(=O)(=O)c2ccc(Cl)cc2)c1O
GI50 (786-0 renal): 572 nM
TGI (786-0 renal): 24.8 µM
GI50 (A498 renal): 22.9 nM
TGI (A498 renal): 422 nM
GI50 (A549 NSCLC): 270 nM
TGI (A549 NSCLC): > 100 µM
GI50 (ACHN renal): 83.8 nM
TGI (ACHN renal): 30.7 µM
GI50 (BT-549 breast): 353 nM
TGI (BT-549 breast): 34.5 µM
GI50 (CAKI-1 renal): 54.2 nM
TGI (CAKI-1 renal): 28.7 µM
GI50 (CCRF-CEM leukemia): 159 nM
TGI (CCRF-CEM leukemia): > 100 µM
GI50 (COLO 205 colon): 1740 nM
TGI (COLO 205 colon): 5.76 µM
GI50 (DU-145 prostate): 200 nM
TGI (DU-145 prostate): > 100 µM
GI50 (HCC-2998 colon): 429 nM
TGI (HCC-2998 colon): 16.4 µM
GI50 (HCT-116 colon): 114 nM
TGI (HCT-116 colon): > 100 µM
GI50 (HCT-15 colon): 53 nM
TGI (HCT-15 colon): > 100 µM
GI50 (HL-60(TB) leukemia): 33.1 nM
TGI (HL-60(TB) leukemia): 265 nM
GI50 (HOP-62 NSCLC): 671 nM
TGI (HOP-62 NSCLC): 46.1 µM
GI50 (HOP-92 NSCLC): 2360 nM
TGI (HOP-92 NSCLC): 23.6 µM
GI50 (HS 578T breast): 292 nM
TGI (HS 578T breast): 37 µM
GI50 (HT29 colon): 2760 nM
TGI (HT29 colon): 11.9 µM
GI50 (IGROV1 ovarian): 379 nM
TGI (IGROV1 ovarian): 49.5 µM
GI50 (K-562 leukemia): 32.3 nM
TGI (K-562 leukemia): 20.2 µM
GI50 (KM12 colon): 127 nM
TGI (KM12 colon): 12.8 µM
GI50 (LOX IMVI melanoma): 153 nM
TGI (LOX IMVI melanoma): 15.5 µM
GI50 (M14 melanoma): 91.3 nM
TGI (M14 melanoma): 56.3 µM
GI50 (MCF7 breast): 38.4 nM
TGI (MCF7 breast): > 100 µM
GI50 (MDA-MB-231 breast): 206 nM
TGI (MDA-MB-231 breast): 21.4 µM
GI50 (MDA-MB-435): 22.2 nM
TGI (MDA-MB-435): 52.5 nM
GI50 (MOLT-4 leukemia): 315 nM
TGI (MOLT-4 leukemia): 83.3 µM
GI50 (NCI-H226 lung): 24.9 µM
TGI (NCI-H226 lung): 90.4 µM
GI50 (NCI-H23 lung): 288 nM
TGI (NCI-H23 lung): 42.4 µM
GI50 (NCI-H460 lung): 316 nM
TGI (NCI-H460 lung): 14.4 µM
GI50 (NCI-H522 lung): 84.8 nM
TGI (NCI-H522 lung): 607 nM
GI50 (NCI/ADR-RES ovarian): 263 nM
TGI (NCI/ADR-RES ovarian): 22.4 µM
GI50 (OVCAR-3 ovarian): 60.2 nM
TGI (OVCAR-3 ovarian): 10.7 µM
GI50 (OVCAR-4 ovarian): 97.3 nM
TGI (OVCAR-4 ovarian): > 100 µM
GI50 (OVCAR-5 ovarian): 2860 nM
TGI (OVCAR-5 ovarian): 33.8 µM
GI50 (OVCAR-8 ovarian): 294 nM
TGI (OVCAR-8 ovarian): 80.6 µM
GI50 (PC-3 prostate): 153 nM
TGI (PC-3 prostate): > 100 µM
GI50 (RPMI-8226 leukemia): 207 nM
TGI (RPMI-8226 leukemia): 20.5 µM
GI50 (RXF 393 renal): 35.5 nM
TGI (RXF 393 renal): 10.7 µM
GI50 (SF-268 CNS): 380 nM
TGI (SF-268 CNS): 33.9 µM
GI50 (SF-295 CNS): 256 nM
TGI (SF-295 CNS): 12.2 µM
GI50 (SF-539 CNS): 37.1 nM
TGI (SF-539 CNS): 10.5 µM
GI50 (SK-MEL-2 melanoma): 65.9 nM
TGI (SK-MEL-2 melanoma): 21.3 µM
GI50 (SK-MEL-28 melanoma): 84 nM
TGI (SK-MEL-28 melanoma): 31.6 µM
GI50 (SK-MEL-5 melanoma): 51.1 nM
TGI (SK-MEL-5 melanoma): 332 nM
GI50 (SK-OV-3 ovarian): 229 nM
TGI (SK-OV-3 ovarian): 24.3 µM
GI50 (SN12C renal): 708 nM
TGI (SN12C renal): 46.5 µM
GI50 (SNB-19 CNS): 807 nM
TGI (SNB-19 CNS): > 100 µM
GI50 (SNB-75 CNS): 33.1 nM
TGI (SNB-75 CNS): 17.4 µM
GI50 (SR leukemia): 30.6 nM
TGI (SR leukemia): 10.4 µM
GI50 (SW-620 colon): 69.4 nM
TGI (SW-620 colon): > 100 µM
GI50 (TK-10 renal): 998 nM
TGI (TK-10 renal): 27.7 µM
GI50 (U251 CNS): 287 nM
TGI (U251 CNS): 15.5 µM
GI50 (UACC-257 melanoma): 14.2 µM
TGI (UACC-257 melanoma): 60.5 µM
GI50 (UACC-62 melanoma): 63.5 nM
TGI (UACC-62 melanoma): 22.6 µM
GI50 (UO-31 renal): 73.9 nM
TGI (UO-31 renal): 26.4 µM
